Laboratory results from paper PMC3814989, “Development of a Fluorescence Polarization Based High-Throughput Assay to Identify Casitas B-Lineage Lymphoma RING Domain Regulators” (PLoS ONE, 2013).
Like-named read-outs stand apart in the source and are kept apart here. Residues, ends and D or L forms follow the SMILES beside them.

Target: T1, c-Cbl (RING) protein (Homo sapiens, UniProt P22681)
T1 construct: c-Cbl (RING) protein including the linker and RING domain (codon 358–457) was tagged with glutathione S-transferase (GST); GST; made in house
T1 sequence (P22681 358-457): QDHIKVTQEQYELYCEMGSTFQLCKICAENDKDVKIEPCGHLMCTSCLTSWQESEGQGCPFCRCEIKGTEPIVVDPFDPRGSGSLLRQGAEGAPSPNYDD
Assay: Competitive FP assay/screen: displacement of probe 1 from c-Cbl (RING) protein
Format: binding
Conditions: for Outcome in detergent-present screen: detergent-present screen (0.01% Triton X-100); for Hit verification outcome: hits from detergent-free screen, more extensive competitive binding assays
Experimental: Assays were carried out in detergent-free buffer system (PBS, pH = 7.4) or detergent-present buffer system (0.01% Triton X-100 in PBS, pH = 7.4). All FP measurements were made on 384-well, low-volume, black, v-bottom polystyrene microplates (Corning, Shanghai, China) using the ZS-2 plate reader. The binding affinities of fluorescein-labeled peptides/regulators binding to c-Cbl (RING) protein were verified by titrating an increasing concentration of protein into a constant concentration of labeled peptides. […] The total fluorescence (TF) values were also measured. The change in polarization was graphed as a function of the log of the protein concentration, and the dissociation constant (Kd) and the change in mP (ΔmP) were obtained from the resulting sigmoidal curve. The concentrations of fluorescein-labeled peptide and proteins were optimized.
Unlabeled short peptide was titrated against the FITC-labeled peptide (100 nmol/L) and protein (3 µmol/L) mixture. Plates were incubated at room temperature for up to 3 hours or 30 min at different temperatures.
Master mixtures containing fluorescein-labeled probe and Cbl (RING) protein Cbl (RING) protein, 3 µmol/L and probe 1 at 100 nmol/L) in a reaction volume of 19 µl were prepared and loaded to plates. The library compounds (10 µmol/L – 0.078 µmol/L, half dilutions) were prepared separately and transferred into the assay plates. The first and last columns of each plate were used as positive and negative control wells. Wells containing the drug only were used as controls to detect auto-fluorescence of the compounds in the total fluorescence assay. After subtraction of the background signal, data was processed and the IC50 values were determined by non-linear least square fitting (four parameters) using SigmaPlot 11.0.
Hits were validated using the primary screening assay conditions in triplicate.

[1] = primary screen, detergent-free system, 10 to 0.078 µmol/L, 5% DMSO, read-out: IC50 Primary screen DF
[2] = primary screen, detergent-present system (0.01% Triton X-100), 10 to 0.078 µmol/L, 5% DMSO, read-out: IC50 Primary screen DP
[3] = validated in triplicate, detergent-free system, read-out: IC50 Validated DF
[4] = validated in triplicate, detergent-present system (0.01% Triton X-100), NR: no dose response, read-out: IC50 Validated DP

Compound	Outcome in detergent-present screen	Hit verification outcome	IC50 [1] [µM]	IC50 [2] [µM]	IC50 [3] [µM]	IC50 [4] [µM]	other results
O=c1c(O)c(-c2ccc(O)c(O)c2)oc2cc(O)cc(O)c12 [Quercetin]	negative	false positive hits					
CC(=O)N1CCC[C@H]1C(=O)N[C@@H](C)C(=O)N[C@@H](CCCCN)C(=O)N1CCC[C@H]1C(=O)N1CCC[C@H]1C(N)=O [Peptide 2, Ac-PAKPP-NH2] (Ac-PAKPP-NH2)							Effect of unlabeled peptide on FP values (detergent-free system, c-Cbl (RING) protein 3 µmol/L + 100 nmol/L probe 1): does not alter the FP values
CC(=O)N1CCC[C@H]1C(=O)N[C@@H](Cc1ccccc1)C(=O)N[C@@H](CCCCN)C(=O)N1CCC[C@H]1C(=O)N1CCC[C@H]1C(N)=O [Peptide 1, Ac-PFKPP-NH2] (Ac-PFKPP-NH2)							IC50 (detergent-free system, c-Cbl (RING) protein 3 µmol/L + 100 nmol/L probe 1, read-out: IC50, unlabeled peptide competing with probe 1): 1.05 ± 0.09 µM; IC50 (detergent-present system (0.01% Triton X-100), c-Cbl (RING) protein 3 µmol/L + 100 nmol/L probe 1, read-out: IC50, unlabeled peptide competing with probe 1): 1.06 ± 0.09 µM
Tehmaglutin	negative	false positive hits	5	> 10	4.7 ± 0.4	> 10	IC50 (primary screen, detergent-free system, 10 to 0.078 µmol/L, 5% DMSO, listed as tehmaglutin, read-out: IC50 Primary screen DF): < 5 µM
CO[C@]1(CC[C@@H](C)CO[C@@H]2O[C@H](CO)[C@@H](O)[C@H](O)[C@H]2O)O[C@H]2C[C@H]3[C@@H]4CC=C5C[C@@H](O[C@@H]6O[C@H](CO)[C@@H](O[C@@H]7O[C@@H](C)[C@H](O)[C@@H](O)[C@H]7O)[C@H](O)[C@H]6O[C@@H]6O[C@@H](C)[C@H](O)[C@@H](O)[C@H]6O)CC[C@]5(C)[C@H]4CC[C@]3(C)[C@H]2[C@@H]1C [Methylprotodioscin]			4.8	4	4.2 ± 0.5	4 ± 0.8	
C[C@]1(O)C[C@@H](O)[C@@H]2C=CO[C@@H](O[C@@H]3O[C@H](CO)[C@@H](O)[C@H](O)[C@H]3O)[C@@H]21 [Leonuride]			3.5	3.8	4.6 ± 0.8	4.5 ± 1.1	IC50 (primary screen, detergent-free system, 10 to 0.078 µmol/L, 5% DMSO, listed as leonuride, read-out: IC50 Primary screen DF): < 5 µM
